Literature values, collected in patent US20230287067A1, “HUMAN I[…] OF HEMO AND HHLA2 HUMAN ENDOGENOUS RETROVIRUSES (HERVS)” (priority 2020, published 2023).

Key:
HLA-A2 = conditions: known property of control peptide
HLA-A24 = conditions: known property of control peptide

Sequence	binding to HLA-A2 (HLA-A2)	binding to HLA-A24 (HLA-A24)
SYLIRALTL	not to HLA-A2	binds strongly
WLLPGTSTV [agonist peptide derived from the tumor-associated antigen Brachyury]	bind strongly	–
